Here are results for 11 compounds from article PMC11901700, “A Sweet Almond Globulin Multifunctional Peptide: Identification, In Silico Screening, Restraint Mechanisms to Keap1 and ACE, and Antihypertensive and Ferrous Transport Efficiency” (Nutrients, 2025).

pIC50: −log10 of the molar value. Where “and” joins values, the source holds several entries; their conditions need not be identical. Equal entries are not always repeated. Where two headings read alike, the source gives them in different places. Where no end group is shown, it is not given here.

A short description of one data set: ABTS+ quenching ability. The data set is classed as physicochemical. The following applies: at 100 μg/mL; absorbance at 734 nm; mean ± standard error. The protocol: The ABTS^+ quenching ability was determined following the same procedures described by Vásquez et al.. The same system without the sample was the control, and glutathione (0.1 mg/mL) was the comparison. The percentage of reduction in absorbance at 734 nm was defined as the ABTS^+ scavenging ability of samples.

Data set [1] in a line: Hydroxyl radical scavenging activity (β-deoxyribose oxidation method). The following applies: at 100 μg/mL. The data set is classed as physicochemical. The protocol:
(§1) As described by Wang et al. and Vásquez et al., the hydroxyl (·OH) and superoxide ( O2−· ) radicals’ scavenging activity was measured using the β-deoxyribose oxidation and pyrogallol auto-oxidation methods, respectively. The comparison was conducted when the samples were replaced by glutathione (0.1 mg/mL).

Data set [2] can be described thus: Superoxide radical scavenging activity (pyrogallol auto-oxidation method). It is filed as physicochemical. As to conditions: at 100 μg/mL. Here is the method: as §1
Data set [3] in a line: Reducing power (potassium ferricyanide method). The data set is classed as physicochemical. As to conditions: at 100 μg/mL; absorbance at 700 nm. An excerpt: The potassium ferricyanide method was employed to determine the reducing power of the SAGH peptides at the same conditions reported by Wang et al., where the absorbance at 700 nm represented the reducing power.
The nature of data set [4]: Gastrointestinal stability of peptide–ferrous chelate (ferrous solubility in simulated digestion). The data set is classed as in vitro ADME. The protocol: Next, the intestinal digestive fluid was added, and digestion was continued at pH 6.8 for 2 h in the EDZF-C002 thermostatic vibrator ([…], 175 rpm).
For data set [5], the target named is T1, ACE (from rabbit lungs) (Oryctolagus cuniculus, UniProt P12822).
T1 construct: ACE (0.1 U, from rabbit lungs, purity > 99.7%, CAS: 9015-82-1) was obtained from Sigma-Aldrich; purchased Sigma-Aldrich (St. Louis, MO, USA); host or cells: rabbit lung tissue
T1 sequence (P12822 34-1310): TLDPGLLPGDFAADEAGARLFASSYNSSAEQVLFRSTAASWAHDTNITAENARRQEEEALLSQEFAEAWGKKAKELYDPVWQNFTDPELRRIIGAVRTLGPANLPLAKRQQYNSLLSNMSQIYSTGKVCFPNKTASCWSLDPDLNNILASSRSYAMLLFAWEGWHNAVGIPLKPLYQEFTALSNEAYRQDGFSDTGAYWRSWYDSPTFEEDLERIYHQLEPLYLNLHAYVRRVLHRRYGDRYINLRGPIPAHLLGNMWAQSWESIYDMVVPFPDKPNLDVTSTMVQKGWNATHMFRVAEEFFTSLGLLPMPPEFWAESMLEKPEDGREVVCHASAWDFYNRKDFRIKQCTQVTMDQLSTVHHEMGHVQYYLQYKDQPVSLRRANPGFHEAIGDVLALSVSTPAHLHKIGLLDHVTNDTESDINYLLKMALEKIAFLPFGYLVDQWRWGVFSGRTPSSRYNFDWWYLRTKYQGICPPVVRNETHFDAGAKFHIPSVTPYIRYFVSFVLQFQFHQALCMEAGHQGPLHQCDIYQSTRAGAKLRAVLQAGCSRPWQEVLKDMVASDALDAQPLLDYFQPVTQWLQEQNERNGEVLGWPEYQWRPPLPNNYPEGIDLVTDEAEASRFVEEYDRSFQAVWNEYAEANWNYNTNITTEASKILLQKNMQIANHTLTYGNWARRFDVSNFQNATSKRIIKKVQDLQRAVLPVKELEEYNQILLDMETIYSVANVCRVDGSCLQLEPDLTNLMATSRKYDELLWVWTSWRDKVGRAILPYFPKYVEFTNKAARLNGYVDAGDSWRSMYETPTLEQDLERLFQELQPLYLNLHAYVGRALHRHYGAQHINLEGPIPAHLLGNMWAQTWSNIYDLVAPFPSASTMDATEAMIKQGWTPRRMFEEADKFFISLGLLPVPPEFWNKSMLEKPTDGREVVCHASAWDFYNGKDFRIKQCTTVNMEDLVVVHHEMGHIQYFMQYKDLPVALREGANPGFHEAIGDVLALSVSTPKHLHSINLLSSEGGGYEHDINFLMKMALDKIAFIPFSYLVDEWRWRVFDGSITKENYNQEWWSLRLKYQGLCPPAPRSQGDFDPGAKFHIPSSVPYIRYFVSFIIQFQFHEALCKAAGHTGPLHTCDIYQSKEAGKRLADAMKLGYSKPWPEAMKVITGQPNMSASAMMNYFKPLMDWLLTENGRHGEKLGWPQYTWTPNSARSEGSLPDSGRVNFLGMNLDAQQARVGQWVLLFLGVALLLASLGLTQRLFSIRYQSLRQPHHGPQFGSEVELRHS
Also on record: method as in 3 sources, ref 29 = [29]; doi:10.1111/j.1365-2621.2001.tb04614.x; 29. Nielsen P.M. Petersen D. Dambmann C. Improved method for determining food protein degree of hydrolysis J. Food Sci. 2001 66 642 646 10.1111/j.1365-2621.2001.tb04614.x ||| ref 43 = [43]; PMID 38470110; doi:10.1021/acs.jafc.4c00829; 43. Martineau-Côté D. Achouri A. Karboune S. L’Hocine L. Antioxidant and Angiotensin-Converting Enzyme Inhibitory Activity of Faba Bean-Derived Peptides After In Vitro Gastrointestinal Digestion: Insi ||| ref 10 = [10]; PMID 36493485; doi:10.1016/j.foodchem.2022.135082; 10. Fadimu G.J. Gan C.Y. Olalere Q.A. Farahnaky A. Gill H. Truong T. Novel antihypertensive peptides from lupin protein hydrolysate: An in-silico identification and molecular docking studies Food Chem. As to conditions: read-out: ACE inhibition IC50 (literature), cited from earlier work.

The conditions of data set [6]: assay not specified, cited from earlier work. The text has this:
Alternatively, the guanidine of Arg, imidazolyl in His, the free hydroxyl group of Ser, the cyclic amino group of Pro, and the phenolic hydroxyl group of Tyr can quickly quench free radicals, showing excellent antioxidant ability. Moreover, the sulfhydryl group in Cys or Met can inhibit free radicals’ chain reaction by chelating metal ions, which are catalysts for oxidation reactions. Therefore, the residues, including Tyr, Pro, Val, and Met, were responsible for the antioxidant activity of […]. Furthermore, the repeated amino acid sequences “GGG” can enhance the antioxidant ...

The conditions of data set [7]: cited from earlier work. The text has this: The ACE inhibition and antioxidant activities of […] were stable during gastrointestinal digestion (Figure 3A and Table 2), which is mainly ascribed to the Pro, Val, and Met residues. […] Therefore, the Pro and Val residues of […] were mainly responsible for its gastrointestinal stability. Peptides rich in Pro and br ...

For data set [8], the target named is T1, ACE (from rabbit lungs). Kind of data set: ACE inhibitory ability (hippuric acid method). The data set is classed as biochemical. The following applies: N = 3. An excerpt:
The hippuric acid method was used to measure the samples’ inhibitory ability towards ACE, following the same procedures as Zheng et al.. The absorbance at 228 nm was the hippuric acid content and represented ACE activity; therefore, the inhibitory ability of samples towards ACE was defined as the percentage of reduction in the absorption at 228 nm between the control and sample groups. Moreover, the ACE inhibitory kinetic of SAGH peptides was investigated by employing a Lineweaver–Burk plot with N-hippuryl-L-histidyl-L-leucine (HHL, 0.13–1.32 mmol/L) as the substrate.
(§2) As described by Wu et al., the simulative gastric digestive fluid consisted of sodium chloride (0.18 mol/L), ultrapure water (180 mL), and 0.40 mg/mL of pepsin. The simulation intestinal digestive juice was composed of NaHCO3, ([…]), bile salt (3 g/100 mL), pancreatin (0.35 mg/mL), and 180 mL of ultrapure water. The antihypertensive and antioxidant SAGH peptides (5 mg/mL, 60 mL) were first hydrolyzed using 150 mL of simulative gastric fluid at 37 °C and 140 rpm for 90 min. The mixture was adjusted to pH 7.0, and 180 mL of the simulative intestinal hydrolysis fluid was added and stirred at 37 °C for 2 h. After boiling for 6 min, the mixture was cooled with running water to room temperature. The ACE inhibition capacity and antioxidant ability of the treated SAGH peptides were detected and compared to those of the […] SAGH peptides.

Data set [9] can be described thus: Gastrointestinal stability of SAGH peptide (simulated gastric and intestinal digestion). It is filed as in vitro ADME. As to conditions: peptide 5 mg/mL; simulated gastric fluid (pepsin 0.40 mg/mL) 37 °C, 140 rpm, 90 min, then pH 7.0 intestinal fluid (pancreatin 0.35 mg/mL, bile salt 3 g/100 mL) 37 °C 2 h; read-out activity. Here is the method:
as §2

Data set [10] is described as follows: Ferrous ion binding capacity (o-phenanthroline method). It is filed as physicochemical. As to conditions: decrease in ferrous concentration per sample concentration, mean ± standard error, at least three tests. The protocol:
The ferrous ion binding capacity was determined using the o-phenanthroline method following the same procedures described by Xu et al.. By plugging the absorbance value into the equation of A = 0.3719C + 0.0002 [36], the ferrous ion concentration (C) can be calculated. The ferrous ion binding capacity (mg/g) was defined as the decrease in ferrous concentration of the reaction solution per sample concentration.

In the case of `N[C@@H](CCC(=O)N[C@@H](CS)C(=O)NCC(=O)O)C(=O)O` [Glutathione, glutathione, reference compound], the “ABTS+ Scavenging Activity (%) Before Gastrointestinal Digestion” value in the data set “ABTS+ quenching ability” is 79.25 ± 1.67 b %. The “·OH Scavenging Activity (%) Before Gastrointestinal Digestion” value in data set [1] is reported as 95.56 ± 1.38 a,b %. Further, the “Superoxide Radical Scavenging Ability (%) Before Gastrointestinal Digestion” value in [2] was determined as 90.52 ± 4.97 a %. Moreover, the “Reducing Power Before Gastrointestinal Digestion” value in [3] came to 0.675 ± 0.019 a.
For `[Cl][Fe][Cl]` [ferrous chloride, reference compound], the “ferrous solubility during gastric digestion” value in [4] (0–90 min, simulated gastric fluid pH 1.9, 37 °C, 175 rpm, soluble ferrous by o-phenanthroline every 30 min, N = 3) is recorded as “relatively stable”. Moreover, in data set [4] (91–240 min, intestinal digestive fluid pH 6.8, soluble ferrous by o-phenanthroline, p < 0.05), the “ferrous solubility during intestinal digestion” value is on record as “apparently decreased”.
With GCHHY, the pIC50 (commonly the IC50 on a negative log10 scale, so that one unit is a factor of ten) with ACE (from rabbit lungs) [5] (peptide from millet bran glutelin-2) is 3.83.
Regarding “LPSYVN [literature antioxidant peptide from apricot]”, the “antioxidant activity (literature)” value in [6] (peptides from apricot) was “excellent antioxidant activity”.
With “PIIAKMY [literature peptide from millet glutelin-2]”, in data set [7] (peptide from millet glutelin-2), the “gastrointestinal stability (literature)” value is given as “good gastrointestinal stability”.
Turning to PMYGGGMV, the pIC50 at ACE (from rabbit lungs) [8] (hippuric acid method, HHL substrate, absorbance at 228 nm, read-out: ACE inhibitory activity (IC50)) was 3.92; at ACE (from rabbit lungs) [8] (peptide 5 mg/mL, simulated gastric fluid (pepsin 0.40 mg/mL) 37 °C 90 min, then intestinal fluid (pancreatin 0.35 mg/mL, bile salt) pH 7.0, 37 °C 2 h, read-out: ACE inhibitory activity (IC50) after simulated gastrointestinal digestion) it was 3.89. Besides, in data set [9], the “stability of ACE inhibition and antioxidant activities during gastrointestinal digestion” value was “stable”.
Regarding “SGGEEAAAGP [oligopeptide identified in SAGH-D]”, in [10], the Ferrous chelating capacity is 18.22 mg/g and 16.14 ± 0.43 g mg/g.
As for “SPAIPLP [literature antioxidant peptide from broad bean]”, in [6] (peptides from broad bean), the “antioxidant activity (literature)” value is listed as “excellent antioxidant activity”.
For the compound “VIPTEPPHA [literature peptide from Faba beans]”, the pIC50 with ACE (from rabbit lungs) [5] (peptide from Faba beans) is 3.59. Besides, in data set [7] (peptide from Faba beans), the “gastrointestinal stability (literature)” value is recorded as “good gastrointestinal stability”.
With “VSRRFIYYL [literature antioxidant peptide from broad bean]”, the “antioxidant activity (literature)” value in data set [6] (peptides from broad bean) is “excellent antioxidant activity”.
Regarding “YLSF [literature antioxidant peptide from apricot]”, in [6] (peptides from apricot), the “antioxidant activity (literature)” value is “excellent antioxidant activity”.
